Data published in patent US20160090555A1, “CLEANING AND/OR TREATMENT COMPOSITIONS COMPRISING MALODOR REDUCTION COMPOSITIONS” (The Procter & Gamble Company, priority 2014, published 2016).

Key:
[1] = Blocker Index (BI), expert graders, isovaleric acid malodorous swatch; parameters: key: Blocker Index, 0–3 scale anchored by reference swatches (0 = clean swatch)
Excerpt: Blocker materials suitable for use in cleaning and/or treatment compositions of the present invention are chosen for their ability to decrease malodor, while not interfering with perception of a fragrance. Material selection is done by assigning two indices to a test sample material from two reference scales in order to rank odor strengths. The two reference scales are the Fragrance Fidelity Index (FFI) scale and the Blocker Index (BI) scale. The FFI ranks the ability of the test sample material to impart a perceivable odor which could cause interference when combined with another fragrance and the BI ranks the ability of the test sample material to reduce malodor perception. The two methods for assigning the indices to a test sample on the FFI and the BI reference scales are given below.
The first step in the method for assigning a BI to a test sample material on the BI reference scale is to create the BI reference swatches. […] Fabric swatches for this test are white knit polycotton (4 inch×4 inch) swatches from EMC ordered as PC 50/50. The supplier is instructed to strip the swatches first, stripping involves washing twice with a fragrance-free detergent and rinsing three times.
The BI scale contains one clean swatch with no malodor applied. […] These solutions are pipetted to the middle of the swatches. […] After drying for 30 minutes in a vented hood, the swatches are wrapped in aluminum foil to prevent odor contamination to the treated swatch. A clean untreated swatch is also included as the lowest anchor point of reference for malodor strength on the BI scale. The BI reference scale swatches should be used within 0.5 to 12 hours and discarded after 12 hours. The swatches are used as scale anchor points when graders evaluate a test sample(s) and are assigned a Blocker Index (BI) as show in Table 12.
The perfumer/expert grader is asked to rank order swatches according to a scale between 0 and 3.
The reference swatches represent the 0, 1, 2, and 3 BIs on the BI reference scale, Table 12. The expert grader should familiarizes him/herself with the strength of the odor on the BI reference swatches by sniffing each one starting at 0 (the lowest odor strength) and ending at 3 (the highest odor strength). This should be done prior to evaluating the swatch treated with the test material.
To evaluate the BI, the test material is applied to a malodorous swatch to determine how well the test material blocks the malodor. […] After drying the malodorous swatch a known concentration of test material solution, between 1 ppm and 100 ppm is pipetted onto the malodorous swatch. […] It is sometimes necessary to evaluate several levels of the test material between about 1 and about 100 ppm to determine the BI.
At least two perfumers/expert graders are used to assign the BI to the test sample. […] The test sample swatch is assigned a BI at or between numbers on the BI in table.

[2] = Fragrance Fidelity Index (FFI), expert graders, treated fabric swatch against ethyl vanillin reference scale
Excerpt: Blocker materials suitable for use in cleaning and/or treatment compositions of the present invention are chosen for their ability to decrease malodor, while not interfering with perception of a fragrance. Material selection is done by assigning two indices to a test sample material from two reference scales in order to rank odor strengths. The two reference scales are the Fragrance Fidelity Index (FFI) scale and the Blocker Index (BI) scale. The FFI ranks the ability of the test sample material to impart a perceivable odor which could cause interference when combined with another fragrance and the BI ranks the ability of the test sample material to reduce malodor perception. The two methods for assigning the indices to a test sample on the FFI and the BI reference scales are given below. The first step in the method for assigning an FFI to the test samples on the FFI reference scale is to create the FFI reference swatches. […] Fabric swatches for this test are white knit polycotton (4 inch×4 inch) swatches from EMC ordered as PC 50/50. The supplier is instructed to strip the swatches first, stripping involves washing twice with a fragrance-free detergent and rinsing three times. […] This will create a sensory scale of three swatches with three different odor levels based on the concentration of the solution pipetted onto the swatch. […] A clean untreated swatch is also included as the lowest anchor point of reference for odor strength on the FFI scale. […] The swatches are used as scale anchor points when graders evaluate a test sample(s) and are assigned a Fragrance Fidelity Index (FFI) as show in Table 7. […] This should be done prior to evaluating the test sample material treated swatch. […] At least two perfumers/expert graders are used to assign an FFI grade to a test sample.

[3] = test material at 10 ppm on isovaleric acid malodorous swatch
[4] = test material at 50 ppm on isovaleric acid malodorous swatch

Row | Structure (SMILES) | BI ([1]; Conc 10 ppm) | BI ([1]; Conc 50 ppm) | FFI ([2]; Conc 10 ppm) | FFI ([2]; Conc 50 ppm) | BI [1, 3] | BI [1, 4] | BI grade of reference swatch, Ave ([1]; 2 μL 0.08% isovaleric acid, all graders (Table 10))
1 | CC1(C)C2CCC3(C2)C1C(=O)CCC3(C)C (centres unmarked) [Material 1149] | 1.5 | 2.3 | 0 | 0.8 | – | – | –
2 | CC1CCC2(C(C)C)CC(C)OC2C1 (centres unmarked) | – | – | – | – | 2.0 | 2.2 | –
3 | C=CC(C)=CCC=C(C)C [Material 524] | – | 2.8 | – | 0 | – | – | –
4 | CCOC(=O)OC1C(C)CCC(C)C1C (centres unmarked) [Material 1005] | – | 2.6 | – | 0.5 | – | – | –
5 | CC1(C)CCc2ccc(CCC=O)cc21 | – | – | – | – | 1.5 | 2.7 | –
6 | CC(=O)OCCCCCCC(C)C [Material 204] | 2.0 | 2.7 | 0 | 0 | – | – | –
7 | CCCCCCCCCCCCCCCC(=O)OC [Material 109] | 2.0 | – | – | – | – | – | –
8 | CC(CCO)CCc1ccccc1 (centres unmarked) [Material 962] | 2.3 | 1.7 | 0 | 0.5 | – | – | –
9 | CC(=O)OC1CC2CC1C1CC=CC21 (centres unmarked) [Material 281] | 2.0 | 2.0 | 0 | 0.5 | – | – | –
10 | CCC(O)COC1CCCCC1C(C)(C)C (centres unmarked) [Material 677] | 2.3 | 2.0 | 0 | 1.8 | – | – | –
11 | O=C1CCC2CCCCC2O1 (centres unmarked) [3,4,4a,5,6,7,8,8a-octahydrochromen-2-one] | 2.0 | 2.0 | 0 | 0 | – | – | –
12 | CC1(C)CCc2ccc(CCC=O)cc21 [Material 261] | 1.8 | 1.3 | 0 | 1.3 | – | – | –
13 | C=C1CCC2OC2(C)CCC2C1CC2(C)C (centres unmarked) [Material 1148] | – | 2.3 | – | 0.5 | – | – | –
14 | CC(C)CC(=O)O [isovaleric acid, reference compound] | – | – | – | – | – | – | 1.0
15 | CC(C)(C)C1CCCCC1 [4-tert-butyl cyclohexane] | 2.0 | 2.0 | 0 | 0.3 | – | – | –
16 | CCCCCCCCCCCCO [Material 174] | – | 2.3 | – | 0.5 | – | – | –
17 | CCCCCCCCCCCO [Undecanol] | – | 2.3 | – | 0.8 | – | – | –
18 | CCC(=O)OC1CC2C3C=CCC3C1C2(C)C (centres unmarked) [8,8-dimethyl-3a,4,5,6,7,7a-hexahydro-1H-4,7-methanoinden-6-yl propionate] | – | – | – | – | 1.5 | 2.2 | –
19 | COC(=O)OC1CC/C=C\CCC1 (centres unmarked) [Material 1139] | 2.0 | 2.7 | 0 | 1.0 | – | – | –
20 | CCCCCCCCCCCC(=O)OCC [Material 391] | – | 2.2 | – | 0.3 | – | – | –
